Experiments:
[1] = molecular target: T1, P2X purinoceptor 4 (Homo sapiens, UniProt Q99571); test: Antagonist activity at human P2X4 receptor
T1 sequence (Q99571 whole entry): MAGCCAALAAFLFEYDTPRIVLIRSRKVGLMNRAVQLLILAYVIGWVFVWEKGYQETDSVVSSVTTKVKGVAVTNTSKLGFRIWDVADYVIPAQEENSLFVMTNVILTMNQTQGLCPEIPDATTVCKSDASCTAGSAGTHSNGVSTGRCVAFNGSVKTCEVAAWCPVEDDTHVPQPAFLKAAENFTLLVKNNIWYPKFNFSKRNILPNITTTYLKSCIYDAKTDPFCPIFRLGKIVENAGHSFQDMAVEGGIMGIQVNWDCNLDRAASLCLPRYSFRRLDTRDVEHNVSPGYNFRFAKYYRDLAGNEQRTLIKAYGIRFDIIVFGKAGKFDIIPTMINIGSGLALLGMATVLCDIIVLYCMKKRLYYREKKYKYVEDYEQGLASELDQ

[2] = Plasma protein binding in mouse; type: ADME, cell-free; settings: read-out: PPB

| SMILES | IC50 [1] [µM] | fraction unbound [2] |
| --- | --- | --- |
| Cc1cc(F)ccc1CS(=O)(=O)Nc1ccc(N2C(=O)CC(=O)Nc3c2ccc2ccccc32)cc1 | 0.008 | < 0.02 |
| Cc1cc(F)ccc1S(=O)(=O)Nc1ccc(N2C(=O)CC(=O)Nc3c2ccc2ccccc32)cc1 | 0.064 | < 0.02 |

— ChEMBL document CHEMBL6109133, “Towards P2X4 Positron Emission Tomography Tracing” (J Med Chem, 2025)
